Reference: US8106197B2, “Aminoheteroaryl compounds as protein kinase inhibitors” (Pfizer Inc., priority 2003, dated 2012)

The compounds below were run against T1, HGFR (Homo sapiens, UniProt P08581) (assay: HGFR continuous-coupled spectrophotometric assay). Conditions: not given.
T1 construct: purchased Upstate 14-526
Assay type: biochemical

T1 sequence (P08581 974-1390 limits assumed): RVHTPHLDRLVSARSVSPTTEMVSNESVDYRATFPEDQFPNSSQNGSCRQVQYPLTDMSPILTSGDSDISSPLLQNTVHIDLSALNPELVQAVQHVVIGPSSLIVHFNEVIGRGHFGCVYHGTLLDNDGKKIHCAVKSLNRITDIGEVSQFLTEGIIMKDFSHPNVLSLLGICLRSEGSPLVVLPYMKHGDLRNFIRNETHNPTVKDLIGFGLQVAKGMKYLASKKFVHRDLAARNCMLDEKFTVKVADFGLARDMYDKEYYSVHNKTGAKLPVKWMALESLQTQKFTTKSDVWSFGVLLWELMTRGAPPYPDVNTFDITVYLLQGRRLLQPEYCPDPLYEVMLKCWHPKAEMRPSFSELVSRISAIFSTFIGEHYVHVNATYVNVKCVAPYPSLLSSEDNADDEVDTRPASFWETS

Row | SMILES | % inhibition
1 | Cc1cc(COc2cc(-c3ccc(C(=O)N4CCC(N5CCCC5)CC4)cc3)cnc2N)nc(-c2ccc(C(F)(F)F)cn2)n1 | % inhibition = 8
2 | Nc1ncc(-c2ccc(C(=O)N3CCC(N4CCCC4)CC3)cc2)cc1OCc1ccc(Cl)cc1Br | % inhibition = 28
3 | Nc1ncc(-c2ccc(C(=O)N3CCC(N4CCCC4)CC3)cc2)cc1OCc1ccc(C(=O)c2ccccc2)cc1 | % inhibition = 31
4 | Cc1oc(-c2cccc(F)c2)nc1COc1cc(-c2ccc(C(=O)N3CCC(N4CCCC4)CC3)cc2)cnc1N | % inhibition = 8
5 | CC(Oc1cc(-c2ccc(C(=O)N3CCC(N4CCCC4)CC3)cc2)cnc1N)c1ccccc1C(F)(F)F (stereo not shown) | % inhibition = 21
6 | Nc1ncc(-c2ccc(C(=O)N3CCC(N4CCCC4)CC3)cc2)cc1OCc1ccc(Br)cc1F | % inhibition = 31
7 | Cn1nc(C(F)(F)F)c2cc(COc3cc(-c4ccc(C(=O)N5CCC(N6CCCC6)CC5)cc4)cnc3N)sc21 | % inhibition = 14
8 | Nc1ncc(-c2ccc(C(=O)N3CCC(N4CCCC4)CC3)cc2)cc1OCc1cccc(Cl)c1Cl | % inhibition = 40
9 | Nc1ncc(-c2ccc(C(=O)N3CCC(N4CCCC4)CC3)cc2)cc1OCc1ccc(C(F)(F)F)cc1C(F)(F)F | % inhibition = 12
10 | N#Cc1ccc(COc2cc(-c3ccc(C(=O)N4CCC(N5CCCC5)CC4)cc3)cnc2N)cc1 | % inhibition = 8
11 | Cc1oc(-c2ccccc2)nc1COc1cc(-c2ccc(C(=O)N3CCC(N4CCCC4)CC3)cc2)cnc1N | % inhibition = 19
12 | Nc1ncc(-c2ccc(C(=O)N3CCC(N4CCCC4)CC3)cc2)cc1OCc1cc(F)cc2c1OCOC2 | % inhibition = 21
13 | Nc1ncc(-c2ccc(C(=O)N3CCC(N4CCCC4)CC3)cc2)cc1OCc1ccc(C(=O)NCCCN2CCCC2=O)cc1 | % inhibition = 11
14 | Nc1ncc(-c2ccc(C(=O)N3CCC(N4CCCC4)CC3)cc2)cc1OCc1ccc(-c2cnc(Br)nc2)cc1 | % inhibition = 33
15 | Nc1ncc(-c2ccc(C(=O)N3CCC(N4CCCC4)CC3)cc2)cc1OCc1ccccc1-c1ccccc1 | % inhibition = 22
16 | Nc1ncc(-c2ccc(C(=O)N3CCC(N4CCCC4)CC3)cc2)cc1OCc1cccc(Br)c1 | % inhibition = 24
17 | Nc1ncc(-c2ccc(C(=O)N3CCC(N4CCCC4)CC3)cc2)cc1OCc1cc(F)cc(F)c1 | % inhibition = 14
18 | COc1cc(OC)nc(COc2cc(-c3ccc(C(=O)N4CCC(N5CCCC5)CC4)cc3)cnc2N)n1 | % inhibition = 20

Row | SMILES | % inhibition
19 | N#Cc1ccccc1-c1ccc(COc2cc(-c3ccc(C(=O)N4CCC(N5CCCC5)CC4)cc3)cnc2N)cc1 | % inhibition = 77
20 | Nc1ncc(-c2ccc(C(=O)N3CCC(N4CCCC4)CC3)cc2)cc1OCc1ccc(F)c(F)c1F | % inhibition = 19
21 | Nc1ncc(-c2ccc(C(=O)N3CCC(N4CCCC4)CC3)cc2)cc1OCc1nc(-c2cccc(C(=O)Nc3ccc(F)cc3)c2)no1 | % inhibition = 64
22 | CC(C)(C)c1ccc(-c2noc(COc3cc(-c4ccc(C(=O)N5CCC(N6CCCC6)CC5)cc4)cnc3N)n2)cc1 | % inhibition = 36
23 | Nc1ncc(-c2ccc(C(=O)N3CCC(N4CCCC4)CC3)cc2)cc1OCc1ccc(C(=O)N2CCN(Cc3ccccc3)CC2)cc1 | % inhibition = 12
24 | Nc1ncc(-c2ccc(C(=O)N3CCC(N4CCCC4)CC3)cc2)cc1OCc1ccc(C(=O)NCc2ccccn2)cc1 | % inhibition = 7
25 | Nc1ncc(-c2ccc(C(=O)N3CCC(N4CCCC4)CC3)cc2)cc1OCc1nc(NCCO)c2ccccc2n1 | % inhibition = 7
26 | Nc1ncc(-c2ccc(C(=O)N3CCC(N4CCCC4)CC3)cc2)cc1OCc1ccc(-c2csnn2)cc1 | % inhibition = 41
27 | Cc1nc(COc2cc(-c3ccc(C(=O)N4CCC(N5CCCC5)CC4)cc3)cnc2N)cs1 | % inhibition = 6
28 | COCOc1ccc(S(=O)(=O)c2ccc(COc3cc(-c4ccc(C(=O)N5CCC(N6CCCC6)CC5)cc4)cnc3N)cc2)cc1 | % inhibition = 18
29 | Cc1cc(COc2cc(-c3ccc(C(=O)N4CCC(N5CCCC5)CC4)cc3)cnc2N)ccc1F | % inhibition = 27
30 | COc1ccnc(COc2cc(-c3ccc(C(=O)N4CCC(N5CCCC5)CC4)cc3)cnc2N)c1OC | % inhibition = 23
31 | CC(C)NC(=O)c1ccc(-c2noc(COc3cc(-c4ccc(C(=O)N5CCC(N6CCCC6)CC5)cc4)cnc3N)n2)cc1 | % inhibition = 18
32 | Nc1ncc(-c2ccc(C(=O)N3CCC(N4CCCC4)CC3)cc2)cc1OCc1nc2ccc(Cl)cc2[nH]1 | % inhibition = 16
33 | Nc1ncc(-c2ccc(C(=O)N3CCC(N4CCCC4)CC3)cc2)cc1OCc1noc(-c2ccccc2)n1 | % inhibition = 16
34 | Nc1ncc(-c2ccc(C(=O)N3CCC(N4CCCC4)CC3)cc2)cc1OCc1cn2cc(Cl)ccc2n1 | % inhibition = 16
35 | CC(C)Oc1cc(C(F)(F)F)nc2ccc(COc3cc(-c4ccc(C(=O)N5CCC(N6CCCC6)CC5)cc4)cnc3N)cc12 | % inhibition = 19

Same assay, conditions: Table 3; Ki(μM) or I(%); test concentration not given

Row | SMILES | I(%)
36 | CC(Oc1cc(CNC2CCN(Cc3ccccc3)C2)cnc1N)c1c(Cl)ccc(F)c1Cl (stereo not shown) [Example I-608, 5-[(1-Benzyl-pyrrolidin-3-ylamino)-methyl]-3-[1-(2,6-dichloro-3-fluoro-phenyl)-ethoxy]-pyridin-2-ylamine] | 0%
37 | Nc1ncc(-c2ccc(C(=O)N3CCC(N4CCCC4)CC3)cc2)cc1OCc1ccccc1 [Example I-649, [4-(6-Amino-5-benzyloxy-pyridin-3-yl)-phenyl]-(4-pyrrolidin-1-yl-piperidin-1-yl)-methanone] | 29%
38 | CCOc1ccccc1-c1cnc(N)c(OC(C)c2c(Cl)ccc(F)c2Cl)c1 (stereo not shown) [Example I-555, 3-[1-(2,6-Dichloro-3-fluoro-phenyl)-ethoxy]-5-(2-ethoxy-phenyl)-pyridin-2-ylamine] | 22%
39 | CC(Oc1cc(-c2ccc(C(=O)N3CCC(N4CCCC4)CC3)cc2)cnc1N)c1ccc(C(=O)NC2CCN(Cc3ccccc3)CC2)cc1 (stereo not shown) [Example I-631] | 3%

Same assay, conditions: Table 5; percent c-MET inhibition at 50 nM

Row | SMILES | inhibition at 0.05 µM
40 | CC(Oc1cc(-c2ccc(C(=O)N3CCNC(=O)C3C)cc2)cnc1N)c1c(Cl)ccc(F)c1Cl (stereo not shown) | 86%
41 | CC(Oc1cc(-c2ccc(C(=O)NC[C@H](O)c3ccccc3)cc2)cnc1N)c1c(Cl)ccc(F)c1Cl (stereo partly shown) | 69%
42 | CC(Oc1cc(-c2ccc(C(=O)NC[C@@H]3CCCC[C@H]3O)cc2)cnc1N)c1c(Cl)ccc(F)c1Cl (stereo partly shown) | 67%
43 | CCC(CO)NC(=O)c1ccc(-c2cnc(N)c(OC(C)c3c(Cl)ccc(F)c3Cl)c2)cc1 (stereo not shown) | 73%
44 | Cc1noc([C@H]2CC[C@H](CNC(=O)c3ccc(-c4cnc(N)c(OC(C)c5c(Cl)ccc(F)c5Cl)c4)cc3)CC2)n1 (stereo partly shown) | 51%
45 | CC(Oc1cc(-c2ccc(C(=O)N3CCCC(C(N)=O)C3)cc2)cnc1N)c1c(Cl)ccc(F)c1Cl (stereo not shown) | 84%

Same assay, conditions: Table 6; percent c-MET inhibition at 1 μM; read-out: % inhibition

Row | SMILES | inhibition at 1 µM
46 | COCC1CN(CC(N)=O)CCN(C(=O)c2cnc(N)c(OCc3c(Cl)cccc3Cl)c2)C1 (stereo not shown) | 23%
47 | CCCC(CO)NC(=O)c1cnc(N)c(OCc2c(Cl)cccc2Cl)c1 (stereo not shown) | 30%
48 | Nc1ncc(C(=O)N2CCN(CC(=O)N3CCCCC3)CC2)cc1OCc1c(Cl)cccc1Cl | 24%
49 | Nc1ncc(C(=O)N2CCCC(O)(COc3cccc(F)c3)C2)cc1OCc1c(Cl)cccc1Cl (stereo not shown) | 36%
50 | CCN(CC)C(=O)C1CCCN(C(=O)c2cnc(N)c(OCc3c(Cl)cccc3Cl)c2)C1 (stereo not shown) | 33%
51 | CS(=O)(=O)C1CCN(C(=O)c2cnc(N)c(OCc3c(Cl)cccc3Cl)c2)C1 (stereo not shown) | 23%
52 | Nc1ncc(C(=O)NCCN2CCN(Cc3ccccc3)CC2)cc1OCc1c(Cl)cccc1Cl | 36%
53 | Cc1ccc(F)c(CNC(=O)c2cnc(N)c(OCc3c(Cl)cccc3Cl)c2)c1F | 31%
54 | Nc1ncc(C(=O)N2CCC(C(=O)c3ccccc3)CC2)cc1OCc1c(Cl)cccc1Cl | 32%
55 | CC(C)OCCNC(=O)c1cnc(N)c(OCc2c(Cl)cccc2Cl)c1 | 46%
56 | COc1cc(CCNC(=O)c2cnc(N)c(OCc3c(Cl)cccc3Cl)c2)ccc1O | 32%
57 | Nc1ncc(C(=O)N2CCC3(CC2)CC3C(=O)NCC2CC2)cc1OCc1c(Cl)cccc1Cl (stereo not shown) | 32%
58 | CC(=O)N(C)C1CCN(C(=O)c2cnc(N)c(OCc3c(Cl)cccc3Cl)c2)C1 (stereo not shown) | 31%
59 | Nc1ncc(C(=O)N2CCNC(=O)CC2)cc1OCc1c(Cl)cccc1Cl | 31%
60 | Nc1ncc(C(=O)NCc2noc(C(=O)N3CCC(CO)CC3)n2)cc1OCc1c(Cl)cccc1Cl | 26%
61 | Nc1ncc(C(=O)NCc2cn3cc(Cl)ccc3n2)cc1OCc1c(Cl)cccc1Cl | 38%

Row | SMILES | inhibition at 1 µM
62 | CC(O)CCNC(=O)c1cnc(N)c(OCc2c(Cl)cccc2Cl)c1 (stereo not shown) | 35%
63 | Nc1ncc(C(=O)N2CCC(O)CC2)cc1OCc1c(Cl)cccc1Cl | 35%
64 | Nc1ncc(C(=O)N2CCC3(CC2)CC3C(=O)N2CCCCC2)cc1OCc1c(Cl)cccc1Cl (stereo not shown) | 26%
65 | COc1ccc(CNC(=O)c2cnc(N)c(OCc3c(Cl)cccc3Cl)c2)c(OC)c1 | 59%
66 | Nc1ncc(C(=O)N2CCC3(CCNC3=O)CC2)cc1OCc1c(Cl)cccc1Cl | 27%
67 | Nc1ncc(C(=O)NCc2ccc(F)cc2F)cc1OCc1c(Cl)cccc1Cl | 33%
68 | CCCOCCNC(=O)c1cnc(N)c(OCc2c(Cl)cccc2Cl)c1 | 45%
69 | Nc1ncc(C(=O)NCc2c(F)cccc2C(F)(F)F)cc1OCc1c(Cl)cccc1Cl | 33%
70 | CCCN(CCO)C1CCCN(C(=O)c2cnc(N)c(OCc3c(Cl)cccc3Cl)c2)CC1 (stereo not shown) | 17%
71 | Nc1ncc(C(=O)NCCc2ccc(S(N)(=O)=O)cc2)cc1OCc1c(Cl)cccc1Cl | 30%
72 | Nc1ncc(C(=O)N2CCN(CC(=O)N3CCCC3)CC2)cc1OCc1c(Cl)cccc1Cl | 32%
73 | CN1CCN(C(=O)c2cnc(N)c(OCc3c(Cl)cccc3Cl)c2)CC1 | 32%
74 | Nc1ncc(C(=O)N2CCN(CC(=O)N3CCOCC3)CC2)cc1OCc1c(Cl)cccc1Cl | 31%
75 | Cc1ccc2c(c1)C(NC(=O)c1cnc(N)c(OCc3c(Cl)cccc3Cl)c1)CCO2 (stereo not shown) | 17%
76 | CN(CCC1CCC(=O)N1CC(F)(F)F)C(=O)c1cnc(N)c(OCc2c(Cl)cccc2Cl)c1 (stereo not shown) | 25%
